Data reported in paper PMC6982223, “Design, Synthesis and Molecular Modeling Study of Conjugates of ADP and Morpholino Nucleosides as A Novel Class of Inhibitors of PARP-1, PARP-2 and PARP-3” (International Journal of Molecular Sciences, 2019).

How the values were obtained:
Format in all cases: biochemical
[1] = target: T1, PARP-3 (Homo sapiens, UniProt Q9Y6F1); assay: auto(ADP-ribosyl)ation of PARP-3
T1 construct: made in house
T1 sequence (Q9Y6F1 1-533): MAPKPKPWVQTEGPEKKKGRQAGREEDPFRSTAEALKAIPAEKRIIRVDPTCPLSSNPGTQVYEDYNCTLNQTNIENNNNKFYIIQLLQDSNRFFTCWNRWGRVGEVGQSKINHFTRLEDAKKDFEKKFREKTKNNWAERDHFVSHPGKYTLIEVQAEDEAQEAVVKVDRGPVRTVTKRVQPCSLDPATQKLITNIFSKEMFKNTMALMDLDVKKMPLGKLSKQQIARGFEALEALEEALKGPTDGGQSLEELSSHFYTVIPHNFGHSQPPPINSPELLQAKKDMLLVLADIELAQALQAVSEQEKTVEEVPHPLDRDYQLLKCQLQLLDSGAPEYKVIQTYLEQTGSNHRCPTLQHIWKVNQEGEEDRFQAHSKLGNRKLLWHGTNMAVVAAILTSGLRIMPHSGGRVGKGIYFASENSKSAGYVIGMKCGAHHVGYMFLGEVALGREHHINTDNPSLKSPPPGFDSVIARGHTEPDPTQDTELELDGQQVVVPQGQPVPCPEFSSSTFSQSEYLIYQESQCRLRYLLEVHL
Source text: (§1) The oligonucleotides were purchased from Biosset (Novosibirsk, Russia). The reagents, solvents and the basic components of buffers were purchased from Sigma (St. Louis, MO, USA), Acros organics (Waltham, MA, USA) or Promega (Madison, WI, USA). γ–[^32P]-ATP and α–[^32P]-ATP (with specific activities of 5000 and 3000 Ci/mmol, respectively) were from the Laboratory of Biotechnology (Institute of Chemical Biology and Fundamental Medicine, Novosibirsk, Russia). T4 polynucleotide kinase was from Biosan (Novosibirsk, Russia). SUMO fusion expression vector pETHSUL (GenBank: EF205333.1) and pSUPER vector coding for the catalytic domain of the S. cerevisiae SUMO hydrolase dtUD1 were kindly provided by Dr. P. Loll (Drexel University, Philadelphia, USA). His6 and Strep-II double-tagged dtUD1 hydrolase was expressed and purified as described in ref. [81]. Human recombinant poly(ADP-ribose)-polymerase 1 (EC 2.4.2.30) was prepared as described previously. Murine recombinant poly(ADP-ribose)-polymerase 2 (EC 2.4.2.30) was purified as described previously. Plasmid encoding human PARP-3 was kindly provided by Dr. A. Ishchenko (Gustave Roussy, Université Paris-Saclay, France). Poly(ADP-ribose)-polymerase 3 (EC 2.4.2.30) was purified according to [6].
The reactions were performed in the presence of 2 mM MgCl2 as a cofactor in HDB buffer. The reaction mixtures (final volume 10 μL) contained 0.1 μM DNA substrate, 0.5 μM PARP-3, 5 μM [^32P]-NAD+ and 0, 35 or 95 μM NAD+ in the absence or presence of various concentrations of the inhibitor, which are indicated on the figures. The reaction mixtures were incubated for 20 min at 37 °С then terminated by adding the 5x gel loading Laemmli sample buffer and heating at 85 °C for 10 min. The mixtures were resolved on a 10% SDS-PAG as described in [84] The gels were dried and subjected to autoradiography and/or phosphorimaging for quantitation using the Typhoon imaging system from GE Healthcare Life Sciences. Quantitative processing was carried out using OriginPro7.5, Microcal Software, USA. […]

[2] = target: T2, Human recombinant poly(ADP-ribose)-polymerase 1 (Homo sapiens, UniProt P09874); assay: autopoly(ADP-ribosyl)ation of PARP-1, [32P]NAD+ incorporation; settings: for IC50: autopoly(ADP-ribosyl)ation, 0.3 mM NAD+; for remaining activity at 1000 µM / Residual PARP-1 activity: in the presence of 1 mM compound; for remaining activity at 1000 µM: read-out: Residual PARP-1 activity (converted)
T2 construct: made in house
Source text: as §1
(§2) The reaction of autopoly(ADP-ribosyl)ation was carried out as follows: for PARP-1 50 mM tris-HCl, pH 8.0, 20 mM MgCl2, 150 mM NaCl, and 7 mM β-mercaptoethanol, activated DNA 2 OE/mL, 0.3 mM [^32P] NAD+ at 37 °C. The reaction was initiated by adding PARP-1 to 200 nM and the reaction mixtures were incubated for 1.5 min. For PARP-2: 50 mM tris-HCl, pH 8.0, 3 mM spermin, 150 mM NaCl, and 7 mM β-mercaptoethanol, activated DNA 2 OE/mL, 0.6 mM [^32P] NAD+ at 37 °C. The reaction was initiated by adding PARP-2 to 800 nM and the reaction mixtures were incubated for 5 min. The reaction was stopped by placing 10 μL aliquots onto Whatman 1 paper filters soaked with 5 % TCA. The filters were washed with 5% TCA for four times and dried in air after the removal of TCA with 90% ethanol. The incorporation of radioactivity into the product was calculated with a Tri-Carb 2800 scintillation counter (Perkin Elmer, Waltham, MA, USA) according to the Cherenkov method or using Typhoon FLA 9500 scanner (GE Healthcare, Chicago, IL, USA). To determine the IC50 value of inhibitors (concentration of the compound required reducing the enzyme activity by 50%), we studied the activity of the enzyme at different concentrations of inhibitors. Measurements were done in at least two independent experiments. IC50 values were calculated using the Origin Pro 8.0 software by nonlinear regression analysis.

[3] = target: T3, Murine recombinant poly(ADP-ribose)-polymerase 2 (Mus musculus, UniProt O88554); assay: autopoly(ADP-ribosyl)ation of PARP-2, [32P]NAD+ incorporation; settings: for IC50: autopoly(ADP-ribosyl)ation, 0.6 mM NAD+; for remaining activity at 1000 µM: read-out: Residual PARP-2 activity (converted)
T3 construct: made in house
Source text: as §1, §2

[4] = target: T4, PARP-1 (Homo sapiens, UniProt P09874); assay: kinetics of PARP-1 inhibition (Km, Vmax, type of inhibition) by fluorescence anisotropy; settings: for type of inhibition: PARP-1 catalyzed reaction, versus NAD+
T4 construct: made in house
Description: The type of inhibition was determined based on at what stage of the reaction the inhibitor binds to the enzyme (before or after the substrate binding) and where it binds (at the substrate binding site or elsewhere). There are four types of inhibition: competitive, whereby an inhibitor binding occurs at the substrate-binding site; noncompetitive, where an inhibitor binds at the allosteric center; mixed with inhibitor binding at both the active and allosteric center; or uncompetitive under an inhibitor binding to the enzyme-substrate complex. Determination of the type of inhibition is necessary to confirm the computer simulation data and to plan further modifications of the inhibitor structure. The type of inhibition can be determined from the plots of the reaction parameters, such as maximum rates, Vmax and the apparent Michaelis constant, Km, values, versus inhibitor concentration. […] Noncompetitive inhibition leads to a decrease of Vmax and retention of the Km values. Mixed inhibition is a superposition of the first two, and is characterized by a decrease in the reaction rate and an increase in Km values. In the case of uncompetitive inhibition, both […].
To determine the type of inhibition of the studied compounds, the activity of PARP-1 was measured at presence of three different inhibitor concentrations at nine NAD+ substrate concentrations by the fluorescence anisotropy technique. Based on the obtained data, dependence graphs of the initial reaction rate on the substrate concentration were constructed, and reaction parameters such as maximum reaction rate (Vmax) and apparent Michaelis constant (Km) values were found (Tables S3 and S4, Supporting). To determine the type of inhibition, we plotted the dependence graph of Vmax and Km values on the inhibitor concentration using OriginPro 8.6.0 software. (Figure 3). […] Therefore, the results of modeling of the binding type of these compounds in the enzyme’s active center are legitimate.
The determination of the kinetic parameters of inhibition Km and Vmax was carried out as described. In all experiments, the points on the experimental curves represent the average of a minimum three independent experiments.

[5] = in the presence of 1 mM compound

T2 sequence (P09874 whole entry): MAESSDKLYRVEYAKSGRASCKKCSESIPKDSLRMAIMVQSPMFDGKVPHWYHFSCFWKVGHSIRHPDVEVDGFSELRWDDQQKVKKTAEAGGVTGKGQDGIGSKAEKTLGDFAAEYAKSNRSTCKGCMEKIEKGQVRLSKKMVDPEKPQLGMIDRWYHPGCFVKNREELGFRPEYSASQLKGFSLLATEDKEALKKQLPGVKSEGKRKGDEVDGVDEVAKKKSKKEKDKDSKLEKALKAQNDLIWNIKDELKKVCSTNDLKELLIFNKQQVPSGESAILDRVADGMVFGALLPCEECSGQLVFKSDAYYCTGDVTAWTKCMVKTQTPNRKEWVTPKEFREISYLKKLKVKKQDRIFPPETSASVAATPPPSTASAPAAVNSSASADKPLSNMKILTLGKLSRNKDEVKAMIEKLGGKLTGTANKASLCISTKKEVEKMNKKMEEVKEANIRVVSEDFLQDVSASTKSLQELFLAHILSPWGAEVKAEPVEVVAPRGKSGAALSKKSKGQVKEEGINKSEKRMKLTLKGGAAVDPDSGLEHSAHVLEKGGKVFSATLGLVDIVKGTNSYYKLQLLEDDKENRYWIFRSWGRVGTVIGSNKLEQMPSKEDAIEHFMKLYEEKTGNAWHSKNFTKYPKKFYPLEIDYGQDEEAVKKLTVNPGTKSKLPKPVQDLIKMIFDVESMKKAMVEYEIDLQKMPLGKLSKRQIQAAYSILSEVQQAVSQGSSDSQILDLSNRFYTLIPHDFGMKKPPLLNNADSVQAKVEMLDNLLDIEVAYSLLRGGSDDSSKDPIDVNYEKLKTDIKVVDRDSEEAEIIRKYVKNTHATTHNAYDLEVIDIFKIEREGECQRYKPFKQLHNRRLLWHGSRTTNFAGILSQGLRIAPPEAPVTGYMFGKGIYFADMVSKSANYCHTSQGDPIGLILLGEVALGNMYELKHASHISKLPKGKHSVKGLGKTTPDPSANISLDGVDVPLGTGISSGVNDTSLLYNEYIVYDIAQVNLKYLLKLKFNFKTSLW
T4 sequence (P09874 whole entry): as above
T3 sequence (O88554 whole entry): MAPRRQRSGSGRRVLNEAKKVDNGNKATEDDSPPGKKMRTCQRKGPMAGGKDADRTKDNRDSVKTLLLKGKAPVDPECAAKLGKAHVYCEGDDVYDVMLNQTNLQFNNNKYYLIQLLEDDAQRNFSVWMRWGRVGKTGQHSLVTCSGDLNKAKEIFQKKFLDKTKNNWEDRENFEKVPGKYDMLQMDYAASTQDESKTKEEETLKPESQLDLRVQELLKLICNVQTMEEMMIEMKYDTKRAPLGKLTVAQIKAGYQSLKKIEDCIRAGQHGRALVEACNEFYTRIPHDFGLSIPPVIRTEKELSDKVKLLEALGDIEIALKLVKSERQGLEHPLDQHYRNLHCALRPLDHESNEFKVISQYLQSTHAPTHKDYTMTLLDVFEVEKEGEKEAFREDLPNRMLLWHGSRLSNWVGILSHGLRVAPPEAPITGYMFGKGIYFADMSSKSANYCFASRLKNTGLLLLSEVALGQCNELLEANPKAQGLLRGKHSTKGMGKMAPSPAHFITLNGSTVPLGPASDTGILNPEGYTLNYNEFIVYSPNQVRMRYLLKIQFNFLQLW

| Structure (SMILES) | IC50 [2] | IC50 [3] | type of inhibition [4] | Vmax ([4]; inhibitor concentration 50 μМ) | Vmax ([4]; inhibitor concentration 100 μМ) | Vmax ([4]; inhibitor concentration 500 μМ) | also measured |
| --- | --- | --- | --- | --- | --- | --- | --- |
| NC(=O)c1cccc(N)c1 [Compound 3-AB, 3-aminobenzamide, reference compound] | – | – | – | 0.16 RFU/sec | 0.16 RFU/sec | 0.16 RFU/sec | – |
| O=c1ccn([C@H]2CNC[C@@H](CO)O2)c(=O)[nH]1 [Compound 11U] | – | – | – | – | – | – | remaining activity at 1000 µM [2]: 91%; remaining activity at 1000 µM [3, 5]: 97% |
| Nc1ncnc2c1ncn2C1OC(COP(=O)(O)OP(=O)(O)OCC2CNCC(n3ccc(=O)[nH]c3=O)O2)C(O)C1O (stereo not drawn) [Compound 4U] | – | – | – | – | – | – | remaining activity at 1000 µM [2]: 93%; remaining activity at 1000 µM [3, 5]: 67% |
| Nc1ncnc2c1ncn2[C@@H]1O[C@H](CO)[C@@H](O)[C@H]1O [Ado, reference compound] | – | – | – | – | – | – | Residual PARP-1 activity [2]: 77% ± 21%; Residual PARP-2 activity [3, 5]: 86% ± 1% |
| Nc1ccn(C2CNCC(COP(=O)(O)OP(=O)(O)OCC3OC(n4cnc5c(N)ncnc54)C(O)C3O)O2)c(=O)n1 (stereo not drawn) [Compound 4C] | – | – | – | – | – | – | remaining activity at 1000 µM [2]: 96%; remaining activity at 1000 µM [3, 5]: 66% |
| O=c1[nH]c(=O)n([C@@H]2O[C@H](CO)[C@@H](O)[C@H]2O)cc1Cl [Compound 5-Cl-Urd, 5-Cl-uridine, reference compound] | – | 196 ± 25 µM | – | – | – | – | Residual PARP-1 activity [2]: 82% ±17% |
| O=c1[nH]c(=O)n([C@H]2CNC[C@@H](CO)O2)cc1Br [Compound 11BrU] | 61 ± 16 µM | 210 ± 48 µM | – | – | – | – | – |
| O=c1[nH]c(=O)n([C@H]2CNC[C@@H](CO)O2)cc1I [Compound 11IU] | 53 ± 12 µM | 85 ± 9 µM | competitive inhibitors | 0.066 RFU/sec | 0.066 RFU/sec | 0.060 RFU/sec | – |

The next lines start with results.

| IC50 [2] | IC50 [3] | type of inhibition [4] | Vmax ([4]; inhibitor concentration 50 μМ) | Vmax ([4]; inhibitor concentration 100 μМ) | Vmax ([4]; inhibitor concentration 500 μМ) | Structure (SMILES) | also measured |
| --- | --- | --- | --- | --- | --- | --- | --- |
| 353 ± 4 µM | 63 ± 10 µM | mixed inhibitor | – | – | – | Nc1ncnc2c1ncn2C1CNCC(CNP(=O)(O)OP(=O)(O)OCC2OC(n3cnc4c(N)ncnc43)C(O)C2O)O1 (stereo not drawn) [Compound 10A] | activity against PARP-3 [1]: lack of activity; Vmax ([4]; inhibitor concentration 300 μМ): 0.090 RFU/sec; Vmax ([4]; inhibitor concentration 600 μМ): 0.068 RFU/sec; Vmax ([4]; inhibitor concentration 900 μМ): 0.062 RFU/sec |
| 126 µM | 110 µM | competitive inhibitors | 0.19 RFU/sec | 0.18 RFU/sec | 0.17 RFU/sec | Nc1ncnc2c1ncn2C1OC(COP(=O)(O)OP(=O)(O)NCC2CNCC(n3cc(I)c(=O)[nH]c3=O)O2)C(O)C1O (stereo not drawn) [Compound 10IU] | activity against PARP-3 [1]: low activity; inhibitory activity in the auto(ADP-ribosyl)ation reaction of PARP-3 ([1]; 1 mM concentration): significant inhibitory activity |
| 255 µM | 160 µM | mixed inhibitor | 0.16 RFU/sec | 0.15 RFU/sec | 0.14 RFU/sec | Nc1ncnc2c1ncn2C1OC(COP(=O)(O)OP(=O)(O)OCC2CNCC(n3cc(I)c(=O)[nH]c3=O)O2)C(O)C1O (stereo not drawn) [Compound 4IU] | – |
